This is an account of results in PubChem BioAssay AID330 (DTP/NCI, 2004).

Values joined by “and” are separate entries in the source; they are usually repeats but may differ in a detail not shown here. Equal values may be shown once. Inconclusive results and toxic doses are left out.

The test relates to P388 leukemia ip, CD2F1 mice, survival T/C. Description: NCI In Vivo Anticancer Drug Screen. Data for tumor model P388 Leukemia (intraperitoneal) in CD2F1 (CDF1) mice. To be noted: endpoint: median survival time, higher = longer survival. The method in brief: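 Mice carrying the transplanted tumor received test compound or vehicle. Survival was recorded in each group, and the value is the treated-group measurement divided by that of the vehicle-treated control group.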

[1] abbreviates: dose: 100.0 mg/kg/injection, schedule: Q04DX003 (ip), vehicle: saline.
[2] abbreviates: dose: 200.0 mg/kg/injection, schedule: Q04DX003 (ip), vehicle: saline.
Setting [3] is: dose: 50.0 mg/kg/injection, schedule: Q01DX005 (ip), vehicle: saline with Tween-80.
Where [4] appears, read: dose: 100.0 mg/kg/injection, schedule: Q01DX005 (ip), vehicle: saline with Tween-80.
The mark [5] stands for this setting: dose: 200.0 mg/kg/injection, schedule: Q01DX005 (ip), vehicle: saline with Tween-80.
The mark [6] stands for this setting: dose: 100.0 mg/kg/injection, schedule: Q04DX003 (ip), vehicle: Klucel (hydroxypropylcellulose) (HPC).
The mark [7] stands for this setting: dose: 200.0 mg/kg/injection, schedule: Q04DX003 (ip), vehicle: Klucel (hydroxypropylcellulose) (HPC).
Where [8] appears, read: dose: 12.5 mg/kg/injection, schedule: Q01DX009 (ip), vehicle: saline.
Setting [9] is: dose: 60.0 mg/kg/injection, schedule: Q01DX005 (ip), vehicle: saline with Tween-80.
Setting [10] is: dose: 120.0 mg/kg/injection, schedule: Q01DX005 (ip), vehicle: saline with Tween-80.
Setting [11] is: dose: 100.0 mg/kg/injection, schedule: Q04DX003 (ip), vehicle: saline with Tween-80.
Where [12] appears, read: dose: 200.0 mg/kg/injection, schedule: Q04DX003 (ip), vehicle: saline with Tween-80.
The mark [13] stands for this setting: dose: 400.0 mg/kg/injection, schedule: Q04DX003 (ip), vehicle: saline with Tween-80.
Where [14] appears, read: dose: 50.0 mg/kg/injection, schedule: Q01DX005 (ip), vehicle: Klucel (hydroxypropylcellulose) (HPC).
[15] abbreviates: dose: 100.0 mg/kg/injection, schedule: Q01DX005 (ip), vehicle: Klucel (hydroxypropylcellulose) (HPC).

Take `c1cc[n+](-c2nc3ccccc3[n-]2)cc1`: the T/C by setting is: under setting [1], 100 % of control; under setting [2], 98 % of control; (dose: 400.0 mg/kg/injection, schedule: Q04DX003 (ip), vehicle: saline) 100 % of control.

In the case of `O=C1OC(c2ccccc2)(c2ccccc2)c2cc3c(cc21)C(=O)OC3(c1ccccc1)c1ccccc1`, the T/C (dose: 50.0 mg/kg/injection, schedule: Q04DX002 (ip), vehicle: saline) was 102 % of control; the T/C (dose: 100.0 mg/kg/injection, schedule: Q04DX002 (ip), vehicle: saline) is 100 % of control; the T/C (dose: 200.0 mg/kg/injection, schedule: Q04DX002 (ip), vehicle: saline) was 98 % of control.

For `CCCCCCCSc1ncnc2c1ncn2C(=O)Sc1ccccc1`, the T/C is, setting by setting: under setting [3], 104 % of control; under setting [4], 99 % of control; under setting [5], 107 % of control.

For the molecule `Clc1ccccc1CN1COc2c(ccc3cccnc23)C1`, the T/C reads like this: under setting [6], 103 % of control; under setting [7], 100 % of control; (dose: 400.0 mg/kg/injection, schedule: Q04DX003 (ip), vehicle: Klucel (hydroxypropylcellulose) (HPC)) 100 % of control.

`N#CCCSC(=S)N1CCCC1=O`: the T/C under setting [3] was 103 % of control, the T/C under setting [4] was 104 % of control and the T/C under setting [5] was 114 % of control.

Regarding `Cn1nnnc1CCN(CCN(CCc1nnnn1C)/N=C\c1ccccc1)/N=C\c1ccccc1`, the T/C (dose: 50.0 mg/kg/injection, schedule: Q04DX003 (ip), vehicle: Klucel (hydroxypropylcellulose) (HPC)) is 95 % of control; the T/C under setting [6] is 95 % of control; the T/C under setting [7] is 96 % of control.

As to `COc1ccc(C2=NC(C)(C)CO2)cc1C`, the T/C under setting [3] is 103 % of control, the T/C under setting [4] was 103 % of control and the T/C under setting [5] is 94 % of control.

For `Oc1ccc(CCl)c2cccnc12`, the T/C under setting [8] is 98 % of control; the T/C (dose: 25.0 mg/kg/injection, schedule: Q01DX009 (ip), vehicle: saline) is 101 % of control; the T/C (dose: 100.0 mg/kg/injection, schedule: Q01DX009 (ip), vehicle: saline) was 150 % of control.

For the molecule `COCCOCOC(C)(C)CCCCl`, the T/C is 106 % of control under setting [9]; 101 % of control under setting [10]; 100 % of control (dose: 240.0 mg/kg/injection, schedule: Q01DX005 (ip), vehicle: saline with Tween-80).

Take `Cc1ccc(S(=O)(=O)C[n+]2ccc3ccccc3c2)cc1`: the T/C under setting [11] was 98 % of control; the T/C under setting [1] was 114 % of control and 118 % of control; the T/C under setting [12] was 105 % of control; the T/C under setting [2] was 117 % of control; the T/C under setting [13] is 100 % of control.

With `COC1(OC)C2(Cl)CC3C4(C)OC(Cl)(C31Cl)C42Cl` (configuration not stated), the T/C is, setting by setting: (dose: 60.0 mg/kg/injection, schedule: Q01DX005 (ip), vehicle: Klucel (hydroxypropylcellulose) (HPC)) 105 % of control; (dose: 120.0 mg/kg/injection, schedule: Q01DX005 (ip), vehicle: Klucel (hydroxypropylcellulose) (HPC)) 101 % of control; (dose: 240.0 mg/kg/injection, schedule: Q01DX005 (ip), vehicle: Klucel (hydroxypropylcellulose) (HPC)) 100 % of control.

`CCOC(=O)NC(Cc1cc(OC)c(OC)cc1Br)c1ccc(OC)c(OC)c1OC` (configuration not stated): the T/C by setting is: (dose: 100.0 mg/kg/injection, schedule: Q01DX001 (ip), vehicle: saline with Tween-80) 91 % of control; (dose: 200.0 mg/kg/injection, schedule: Q01DX001 (ip), vehicle: saline with Tween-80) 94 % of control; (dose: 400.0 mg/kg/injection, schedule: Q01DX001 (ip), vehicle: saline with Tween-80) 91 % of control.

As for `C/C1=C\C(=O)OCC23CC(O)C4(C)OC4C2OC2CC(OC(=O)/C=C/C=C/C(C(C)O)OCC1O)C3(C)C21CO1` (configuration not stated), the T/C (dose: 1.25 mg/kg/injection, schedule: Q01DX005 (ip), vehicle: saline + alcohol) was 120 % of control; the T/C (dose: 2.5 mg/kg/injection, schedule: Q01DX005 (ip), vehicle: saline + alcohol) was 120 % of control; the T/C (dose: 5.0 mg/kg/injection, schedule: Q01DX005 (ip), vehicle: saline + alcohol) was 155 % of control; the T/C (dose: 10.0 mg/kg/injection, schedule: Q01DX005 (ip), vehicle: saline + alcohol) is 172 % of control.

With `C/C(=N\N=C(N)N)c1ccccc1`, the T/C reads like this: (dose: 6.25 mg/kg/injection, schedule: Q01DX009 (ip), vehicle: saline) 110 % of control; under setting [8], 101 % of control.

`Cc1cc(C)c(OP(=S)(Oc2c(C)cc(C)cc2C)Oc2c(C)cc(C)cc2C)c(C)c1`: the T/C runs as follows: (dose: 100.0 mg/kg/injection, schedule: Q04DX002 (ip), vehicle: Klucel (hydroxypropylcellulose) (HPC)) 87 % of control; (dose: 200.0 mg/kg/injection, schedule: Q04DX002 (ip), vehicle: Klucel (hydroxypropylcellulose) (HPC)) 86 % of control.

In the case of `CN1CCO[Si](C)(C)C[Si](C)(C)OCC1`, the T/C was 103 % of control (dose: 60.0 mg/kg/injection, schedule: Q01DX005 (ip), vehicle: saline); 102 % of control (dose: 120.0 mg/kg/injection, schedule: Q01DX005 (ip), vehicle: saline); 105 % of control (dose: 240.0 mg/kg/injection, schedule: Q01DX005 (ip), vehicle: saline).

Consider `CCN(CC)C(=O)NCCCCCCNC(=O)N(CC)CC`, for which the T/C is 103 % of control (dose: 15.0 mg/kg/injection, schedule: Q01DX005 (ip), vehicle: saline with Tween-80); 98 % of control and 104 % of control (dose: 30.0 mg/kg/injection, schedule: Q01DX005 (ip), vehicle: saline with Tween-80); 98 % of control and 100 % of control and 94 % of control under setting [9]; 87 % of control under setting [10].

In the case of `Nc1[nH]nc2nc(-c3ccccc3)cnc12`, the T/C runs as follows: (dose: 25.0 mg/kg/injection, schedule: Q01DX009 (ip), vehicle: saline with Tween-80) 90 % of control; (dose: 50.0 mg/kg/injection, schedule: Q01DX009 (ip), vehicle: saline with Tween-80) 86 % of control; (dose: 100.0 mg/kg/injection, schedule: Q01DX009 (ip), vehicle: saline with Tween-80) 90 % of control; under setting [11], 90 % of control; under setting [12], 90 % of control; under setting [13], 90 % of control.

Take `CC(NNC(=S)N1CCCCCC1)c1ccc2ccccc2n1` (configuration not stated): the T/C is 111 % of control under setting [14]; 110 % of control and 122 % of control and 95 % of control under setting [15]; 112 % of control and 113 % of control (dose: 200.0 mg/kg/injection, schedule: Q01DX005 (ip), vehicle: Klucel (hydroxypropylcellulose) (HPC)).

Regarding `O=C1c2ccccc2C(=O)N1CCc1ccccc1Br`, the T/C was 104 % of control under setting [14] and 96 % of control under setting [15].

As for `CC(C)NCC(N)C(=O)O` (configuration not stated), the T/C (dose: 55.0 mg/kg/injection, schedule: Q01DX001 (ip), vehicle: saline) was 102 % of control; the T/C (dose: 110.0 mg/kg/injection, schedule: Q01DX001 (ip), vehicle: saline) was 102 % of control; the T/C (dose: 220.0 mg/kg/injection, schedule: Q01DX001 (ip), vehicle: saline) was 99 % of control.

`O=[N+]([O-])O.O=[N+]([O-])O.[Cu].c1cnc2c(c1)ccc1cccnc12`: the T/C by setting is: (dose: 1.56 mg/kg/injection, schedule: Q04DX002 (ip), vehicle: saline) 101 % of control; (dose: 6.25 mg/kg/injection, schedule: Q04DX002 (ip), vehicle: saline) 99 % of control and 106 % of control.

For `CCOC(CN1Cc2cc(OC)c(OC)cc2CC1c1ccc(OC)c(OC)c1)OCC` (configuration not stated), the T/C is, setting by setting: under setting [9], 95 % of control; under setting [10], 92 % of control.

Take `N#CC1C(=O)NC(=S)NC1c1ccc(Cl)c(Cl)c1` (configuration not stated): the T/C is, setting by setting: (dose: 50.0 mg/kg/injection, schedule: Q01DX009 (ip), vehicle: Klucel (hydroxypropylcellulose) (HPC)) 100 % of control; (dose: 100.0 mg/kg/injection, schedule: Q01DX009 (ip), vehicle: Klucel (hydroxypropylcellulose) (HPC)) 95 % of control; (dose: 200.0 mg/kg/injection, schedule: Q01DX009 (ip), vehicle: Klucel (hydroxypropylcellulose) (HPC)) 95 % of control.

For the molecule `O=C(O)C1=C(C(=O)O)C2c3ccccc3C1c1ccccc12`, the T/C is 99 % of control under setting [3], 90 % of control under setting [4] and 103 % of control under setting [5].
